“And” between values parts separate entries of the source, which are not always exact repeats. Identical values can stand only once.
Tests used:
[1] = system: rat uterine decidualization; test: Rat decidualization assay; conditions: s.c.; for Estimated average EC50 for uterine weight (decidual response): ovariectomized rats, average of dose-response curves; for Estimated EC50 for uterine weight (decidual response): ovariectomized female Sprague-Dawley rats, once daily for seven days, individual studies
Procedure: (2) Rat Decidualization Assay
(a) Objective: This procedure is used to evaluate the effect of progestins and antiprogestins on rat uterine decidualization and compares the relative potencies of various test compounds.
(b) Methods • A. Reagents • Test compounds are dissolved in 100% ethanol and mixed with corn oil (vehicle). Stock solutions of the test compounds in oil (the Mazola™ oil) are then prepared by heating (˜80° C.) the mixture to evaporate ethanol. Test compounds are subsequently diluted with 100% corn oil or 10% ethanol in corn oil prior to the treatment of animals. […] Ovariectomy is performed at least 10 days prior to treatment to reduce circulating sex steroids. Animals are housed under 12 hours light/dark cycle and given standard rat chow and water ad libitum. • C. […] Test compounds in 0.2 mL vehicle are administered by subcutaneous injection in the nape of the neck or by gavage using 0.5 mL. The animals are treated once daily for seven days. […] In all studies, a control group receiving vehicle is included. Determination of dose-response curves is carried out using doses with half log increases (e.g. 0.1, 0.3, 1.0, 3.0 mg/kg). • E. Decidual Induction • Approximately 24 hours after the third injection, decidualization is induced in one of the uterine horns by scratching the antimesometrial luminal epithelium with a blunt 21 G needle. The contralateral horn is not scratched and serves as an unstimulated control. Approximately 24 hours following the final treatment, rats are sacrificed by CO2 asphyxiation and body weight measured. Uteri are removed and trimmed of fat. […] The Huber M-estimator is used to down weight the outlying transformed observations for both dose-response curve fitting and one-way analysis of variance. JMP software (SAS Institute, Inc.) is used for both one-way ANOVA and non-linear dose-response analyses. • G. Reference Compounds:
All progestin reference compounds are run in full dose-response curves and the EC50 for uterine wet weight is calculated.

PR = target: T1, PR (Homo sapiens, UniProt P06401); test: T47D cell alkaline phosphatase assay; assay type: cell-based; conditions: T47D cells, agonist mode; read-out: Alk. Phos. EC50
T1 construct: Frozen T47D cells were thawed in a 37° C. water bath and diluted to 280,000 cells/mL in culture medium; endogenous in cells; host or cells: T47D cells
T1 sequence (P06401 1-933): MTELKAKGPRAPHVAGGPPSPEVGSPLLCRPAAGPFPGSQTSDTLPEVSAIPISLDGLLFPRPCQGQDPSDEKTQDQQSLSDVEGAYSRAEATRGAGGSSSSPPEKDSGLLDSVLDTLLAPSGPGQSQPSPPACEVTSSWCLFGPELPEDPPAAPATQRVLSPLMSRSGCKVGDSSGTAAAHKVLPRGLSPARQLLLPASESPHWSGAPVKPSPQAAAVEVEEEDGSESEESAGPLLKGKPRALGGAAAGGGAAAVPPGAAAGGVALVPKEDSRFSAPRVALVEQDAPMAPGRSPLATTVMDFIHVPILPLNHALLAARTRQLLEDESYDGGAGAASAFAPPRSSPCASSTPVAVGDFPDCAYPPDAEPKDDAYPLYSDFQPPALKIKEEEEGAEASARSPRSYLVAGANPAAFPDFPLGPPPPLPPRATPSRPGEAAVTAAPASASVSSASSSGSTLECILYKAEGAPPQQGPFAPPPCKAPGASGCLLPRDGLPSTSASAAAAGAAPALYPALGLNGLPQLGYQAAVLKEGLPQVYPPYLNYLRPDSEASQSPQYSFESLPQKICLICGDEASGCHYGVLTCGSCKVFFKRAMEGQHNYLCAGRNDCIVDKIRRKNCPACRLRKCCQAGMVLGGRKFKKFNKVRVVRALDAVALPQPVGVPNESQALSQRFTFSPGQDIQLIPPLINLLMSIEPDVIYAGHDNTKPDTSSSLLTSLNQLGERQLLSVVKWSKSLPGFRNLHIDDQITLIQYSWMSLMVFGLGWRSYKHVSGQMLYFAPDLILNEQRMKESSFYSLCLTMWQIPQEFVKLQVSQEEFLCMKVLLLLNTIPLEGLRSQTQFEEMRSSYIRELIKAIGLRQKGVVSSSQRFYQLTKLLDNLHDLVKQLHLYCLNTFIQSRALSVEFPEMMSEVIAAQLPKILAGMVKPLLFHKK
Procedure: (4) T47D Cell Alkaline Phosphatase Assay
(a) Purpose: To identify progestins or antiprogestins by determining a compound's effect on alkaline phosphatase activity in T47D cells.
(b) Methods: • A. Reagents • (i) Culture medium: DMEM:F12 (1:1) (GIBCO, BRL) supplemented with 5% (v/v) charcoal stripped fetal bovine serum (not heat-inactivated), 100 U/mL penicillin, […] streptomycin, and 2 mM GlutaMax (GIBCO, BRL). • (ii) Alkaline Phosphatase Assay Buffer • I. 0.1 M Tris-HCl, pH 9.8, containing 0.2% the Triton™ X-100 reagent • II. 0.1 M Tris-HCl, pH 9.8 containing 4 mM p-nitrophenyl phosphate (Sigma). • B. Cell Culture and Treatment • Frozen T47D cells were thawed in a 37° C. water bath and diluted to 280,000 cells/mL in culture medium. To each well in a 96-well plate (Falcon, Becton Dickinson Labware), 180 μL of diluted cell suspension was added. Twenty μL of reference or test compounds diluted in the culture medium was then added to each well. […] The cells were incubated at 37° C. in a 5% CO2/humidified atmosphere for 24 hours. • Note: For high throughput screening, one concentration of each compound was tested at 0.3 mg/mL. […]
Square root-transformed data were used for analysis of variance and nonlinear dose response curve fitting for both agonist and antagonist modes. […] EC50 or IC50 values were calculated from the retransformed values. […]

C#C[C@]1(O)CC[C@H]2[C@@H]3CCC4=CC(=O)CC[C@@H]4[C@H]3C(=C)C[C@@]21CC [3-Ketodesogestrel]
Estimated average EC50 for uterine weight (decidual response) [1]: 0.10 mg/kg, s.c.

Cn1c(C#N)ccc1-c1ccc2c(c1)C(C)(C)CC2O (stereo not shown) [Example 3, 5-(1-hydroxy-3,3-dimethyl-2,3-dihydro-1H-inden-5-yl)-1-methyl-1H-pyrrole-2-carbonitrile]
EC50 (PR): 18.6 nM

C#C[C@]1(O)CC[C@H]2[C@@H]3CCC4=CC(=O)CC[C@@H]4[C@H]3CC[C@@]21CC [Levonorgestrel]
Estimated EC50 for uterine weight (decidual response) [1]: 0.08 mg/kg, s.c. and 0.12 mg/kg, s.c. and 0.09 mg/kg, s.c. (2×)
Estimated average EC50 for uterine weight (decidual response) [1]: 0.10 mg/kg, s.c.

CC(=O)O[C@]1(C(C)=O)CC[C@H]2[C@@H]3C[C@H](C)C4=CC(=O)CC[C@]4(C)[C@H]3CC[C@@]21C [MPA, medroxyprogesterone acetate]
Estimated EC50 for uterine weight (decidual response) [1]: 0.42 mg/kg, s.c. and 0.39 mg/kg, s.c. (2×)

CC(=O)[C@H]1CC[C@H]2[C@@H]3CCC4=CC(=O)CC[C@]4(C)[C@H]3CC[C@]12C [Progesterone]
Estimated EC50 for uterine weight (decidual response) [1]: 5.50 mg/kg, s.c.
Estimated average EC50 for uterine weight (decidual response) [1]: 5.62 mg/kg, s.c.
